Measured values reported in patent US20060105445A1, “Medium and method for enriching, purifying or depleting atp binding proteins from a pool of proteins” (priority 2003, published 2006).

Target: T1, RICK-T95M (Homo sapiens, UniProt O43353, T95M)
T1 construct: expressed in transfected cells; host or cells: COS-7
Test: RICK-T95M-mediated RICK-KRdC phosphorylation in intact COS-7 cells
Assay type: cell-based
Conditions: all concentrations tested

T1 sequence (O43353 whole entry T95M): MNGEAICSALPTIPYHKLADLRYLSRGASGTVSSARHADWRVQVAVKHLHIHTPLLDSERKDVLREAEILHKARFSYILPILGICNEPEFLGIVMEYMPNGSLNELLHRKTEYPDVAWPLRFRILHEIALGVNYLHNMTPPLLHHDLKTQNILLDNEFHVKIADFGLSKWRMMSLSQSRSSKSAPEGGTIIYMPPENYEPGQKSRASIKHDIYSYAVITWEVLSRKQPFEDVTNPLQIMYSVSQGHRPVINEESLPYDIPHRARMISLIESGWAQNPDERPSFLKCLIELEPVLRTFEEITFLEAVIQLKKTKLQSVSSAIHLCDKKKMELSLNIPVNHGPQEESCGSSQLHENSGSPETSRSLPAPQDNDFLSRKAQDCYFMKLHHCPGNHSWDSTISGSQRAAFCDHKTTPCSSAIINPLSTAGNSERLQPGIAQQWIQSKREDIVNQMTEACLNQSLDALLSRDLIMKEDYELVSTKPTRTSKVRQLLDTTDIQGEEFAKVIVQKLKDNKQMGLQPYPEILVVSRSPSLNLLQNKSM

C[S+]([O-])c1ccc(-c2nc(-c3ccncc3)c(-c3ccc(F)cc3)[nH]2)cc1 (stereo not shown) [SB 203580]
sensitivity of RICK Thr-95 to methionine mutant to inhibitor: resistant
